Literature values as cited in US20110039841A1, “Novel compounds, their preparation and use” (Novo Nordisk A/S, priority 2004, published 2011).

Tests used:
[1] = molecular target: T1, PPARδ (Mus musculus, UniProt P35396); details: high fat diet induced insulin resistant mice and diabetic ob/ob; PNAS 2003, 100, 15924-15929
T1 construct: pharmacological treatment of both high fat diet induced insulin resistant mice and diabetic ob/ob with the potent PPARδ agonist GW501516; host or cells: mice (high fat diet induced insulin resistant; ob/ob), in vivo
T1 sequence (P35396 1-440): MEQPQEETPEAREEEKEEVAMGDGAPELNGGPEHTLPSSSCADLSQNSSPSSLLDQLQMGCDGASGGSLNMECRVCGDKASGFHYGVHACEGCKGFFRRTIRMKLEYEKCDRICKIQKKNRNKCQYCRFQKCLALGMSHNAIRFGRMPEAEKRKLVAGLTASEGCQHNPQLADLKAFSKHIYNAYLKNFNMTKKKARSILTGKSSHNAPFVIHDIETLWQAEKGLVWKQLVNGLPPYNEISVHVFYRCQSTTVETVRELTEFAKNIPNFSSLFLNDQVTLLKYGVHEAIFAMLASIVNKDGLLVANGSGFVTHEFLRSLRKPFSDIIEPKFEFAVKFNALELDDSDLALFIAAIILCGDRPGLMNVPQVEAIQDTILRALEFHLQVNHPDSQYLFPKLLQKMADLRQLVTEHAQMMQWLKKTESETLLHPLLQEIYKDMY

[2] = tested on: C2C12 muscle cells; details: in vitro, BioChem. Biophys. Acta 2003, 1633, 43-50, Mol. Endocrin. 2003, 17, 2477-2493

What does the source list for `Cc1cc(SCc2sc(-c3ccc(C(F)(F)F)cc3)nc2C)ccc1OCC(=O)O` [GW501516]?
plasma glucose, insulin and insulin sensitivity [1]: lowering of plasma glucose and insulin and improved insulin sensitivity; regulation of genes of lipid metabolism and energy expenditure [2]: regulation of genes involved with TG hydrolysis and FFA oxidation
